{"source": "patent US8404677B2", "about": "“Kinase inhibitors” (Genosco, priority 2009, dated 2013)", "key": {"PC-3": {"test_system": "PC-3", "test": "cells", "type": "cell-based", "conditions": "PC-3 (Prostate Cancer)"}, "COLO 205": {"test_system": "COLO 205", "test": "cells", "type": "cell-based", "conditions": "COLO 205 (Colon Cancer)"}, "HS 578T": {"test_system": "HS 578T", "test": "cells", "type": "cell-based", "conditions": "HS 578T (Breast Cancer)"}, "A498": {"test_system": "A498", "test": "cells", "type": "cell-based", "conditions": "A498 (Renal Cancer)"}, "HOP-62": {"test_system": "HOP-62", "test": "cells", "type": "cell-based", "conditions": "HOP-62 (NSCLC)"}, "SNB-75": {"test_system": "SNB-75", "test": "cells", "type": "cell-based", "conditions": "SNB-75 (CNS Cancer)"}, "BT-549": {"test_system": "BT-549", "test": "cells", "type": "cell-based", "conditions": "BT-549 (Breast Cancer)"}, "[1]": {"test_system": "TNF-α release in THP-1 cells, LPS stimulation", "test": "SYK independent TNF-α release assay (LPS stimulation)", "type": "cell-based, human", "method": "For SYK independent TNF-α release assay (i.e., via lipopolysaccharide (LPS)-stimulation), THP-1 cells derived from human monocytic cells were obtained from the American Type Culture Collection (ATCC, Manassas, Va.). This cell line was maintained with an RPMI medium (GIBCO™) containing 10 fetal bovine serum (FBS, GIBCO™) and 0.05 mM 2-mercaptoethanol. The THP-1 cells were seeded at 1×10^5 cells/100 μL/well into 96-well culture plates, and treated with lipopolysaccharide (1 μg/ml), and serially diluted compound was then added. After an 18-hour incubation period at 37° C., supernatants were collected for the determination of the TNF-α level by ELISA, and the remaining cells were subjected to an MTT assay to determine the cytotoxic effects of compound."}, "M14": {"test_system": "M14", "test": "cells", "type": "cell-based", "conditions": "M14 (Melanoma)"}, "EKVX": {"test_system": "EKVX", "test": "cells", "type": "cell-based", "conditions": "EKVX (NSCLC)"}, "U251": {"test_system": "U251", "test": "cells", "type": "cell-based", "conditions": "U251 (CNS Cancer)"}, "MALME-3M": {"test_system": "MALME-3M", "test": "cells", "type": "cell-based", "conditions": "MALME-3M (Melanoma)"}, "MDA-MB-231/ATCC": {"test_system": "MDA-MB-231/ATCC", "test": "cells", "type": "cell-based", "conditions": "MDA-MB-231/ATCC (Breast Cancer)"}, "MOLT-4": {"test_system": "MOLT-4", "test": "cells", "type": "cell-based", "conditions": "MOLT-4 (Leukemia)"}, "[2]": {"test_system": "SN4741 cells overexpressing LRRK2 wild-type", "test": "Neuroprotection from LRRK2-mediated dopaminergic cell death (H2O2, crystal violet)", "type": "cell-based, murine", "conditions": "for Percent Cell Death: LRRK2 WT, 100 μM hydrogen peroxide", "method": "(§1) SN4741, a murine dopaminergic cell line were cultured in DMEM containing 10 FBS at 37° C., respectively. SN4741 cells (1.5×10^4/well) were seeded in 48 well plates 1 day before transient transfection with 1 μg of the pcDNA3.1 plasmids of either vector, LRRK wildtype cDNA, LRRK G2019S cDNA, by standard CaCl2 precipitation. Two days after transfection, cells were treated with 100 μM hydrogen peroxide for 1 day and cell viability was measured by crystal violet assay. For compound treatment, the test compounds were added at 0.05 μM, 0.5 μM and 5 μM and the cells were incubated for 1 hour prior to the addition of hydrogen peroxide.\n(§2) SN4741 cells were transfected with plasmids containing the LRRK2 wild-type or G2019S and incubated them for 2 days followed by addition of 100 μM of hydrogen peroxide for 24 h to sensitize them to oxidative stress. Cell survival was assessed using the crystal violet."}, "[3]": {"test_system": "SN4741 cells overexpressing LRRK2 G2019S", "test": "Neuroprotection from LRRK2-mediated dopaminergic cell death (H2O2, crystal violet)", "type": "cell-based, murine", "conditions": "for Percent Cell Death: 100 μM hydrogen peroxide", "method": "as §1, §2"}, "[4]": {"test_system": "SN4741 cells transfected with vector", "test": "Neuroprotection from LRRK2-mediated dopaminergic cell death (H2O2, crystal violet)", "type": "cell-based, murine", "conditions": "100 μM hydrogen peroxide", "method": "as §1, §2"}, "NCI-H23": {"test_system": "NCI-H23", "test": "cells", "type": "cell-based", "conditions": "NCI-H23 (NSCLC)"}, "NCI-H226": {"test_system": "NCI-H226", "test": "cells", "type": "cell-based", "conditions": "NCI-H226 (NSCLC)"}, "[5]": {"conditions": "Homo sapiens, read-out: LC50 (the source's name)"}}, "note": "pIC50: −log10 of the molar value."}
{"molecule": "O=c1[nH]ccc2nc(N3CCC(O)CC3)nc(Nc3cccc(C(F)(F)F)c3)c12", "note": "[Compound 6, 2-(4-hydroxypiperidin-1-yl)-4-(3-(trifluoromethyl)phenylamino)pyrido[4,3-d]pyrimidine-5(6H)-one]", "values": [{"measurement": "GI50", "setting": "PC-3; Homo sapiens", "result": 2290, "unit": "nM"}, {"measurement": "pIC50", "setting": "PC-3; Homo sapiens", "result": 5.33}, {"measurement": "CC50", "setting": "PC-3; [5]", "result": 93.3, "unit": "µM"}, {"measurement": "TGI", "setting": "PC-3", "result": 12.9, "unit": "µM"}, {"measurement": "TGI", "setting": "COLO 205", "result": 14.5, "unit": "µM"}, {"measurement": "GI50", "setting": "COLO 205; Homo sapiens", "result": 3.09, "unit": "µM"}, {"measurement": "pIC50", "setting": "COLO 205; Homo sapiens", "result": 5.28}, {"measurement": "CC50", "setting": "COLO 205; [5]", "result": 45.7, "unit": "µM"}, {"measurement": "TGI", "setting": "HS 578T", "result": 14.1, "unit": "µM"}, {"measurement": "GI50", "setting": "HS 578T; Homo sapiens", "result": 1950, "unit": "nM"}, {"measurement": "pIC50", "setting": "HS 578T; Homo sapiens", "result": 4.36}, {"measurement": "CC50", "setting": "HS 578T; [5]", "result": 100, "unit": "µM"}, {"measurement": "TGI", "setting": "A498", "result": 100, "unit": "µM"}, {"measurement": "GI50", "setting": "A498; Homo sapiens", "result": 2510, "unit": "nM"}, {"measurement": "pIC50", "setting": "A498; Homo sapiens", "result": "≤ 4.00"}, {"measurement": "CC50", "setting": "A498; [5]", "result": 100, "unit": "µM"}, {"measurement": "TGI", "setting": "HOP-62", "result": 18.6, "unit": "µM"}, {"measurement": "GI50", "setting": "HOP-62; Homo sapiens", "result": 4.37, "unit": "µM"}, {"measurement": "pIC50", "setting": "HOP-62; Homo sapiens", "result": 5.05}, {"measurement": "CC50", "setting": "HOP-62; [5]", "result": 79.4, "unit": "µM"}, {"measurement": "GI50", "setting": "SNB-75; Homo sapiens", "result": 5.75, "unit": "µM"}, {"measurement": "pIC50", "setting": "SNB-75; Homo sapiens", "result": 4.11}, {"measurement": "CC50", "setting": "SNB-75; [5]", "result": 100, "unit": "µM"}, {"measurement": "TGI", "setting": "SNB-75", "result": 81.3, "unit": "µM"}, {"measurement": "TGI", "setting": "BT-549", "result": 4.37, "unit": "µM"}, {"measurement": "GI50", "setting": "BT-549; Homo sapiens", "result": 1580, "unit": "nM"}, {"measurement": "pIC50", "setting": "BT-549; Homo sapiens", "result": 5.34}, {"measurement": "CC50", "setting": "BT-549; [5]", "result": 14.1, "unit": "µM"}, {"measurement": "inhibition at 0.3 µM", "setting": "[1]; Homo sapiens, LPS stimulation, At 0.3 μM, THP-1, read-out: Inhibition of TNF-α Release (percentage inhibition)", "result": 58, "unit": "%"}, {"measurement": "inhibition at 1 µM", "setting": "[1]; Homo sapiens, LPS stimulation, At 1 μM, THP-1, read-out: Inhibition of TNF-α Release (percentage inhibition)", "result": 68.9, "unit": "%"}, {"measurement": "percentage inhibition of TNF-α release compared with dexamethasone", "setting": "[1]; LPS stimulated release", "result": "greater than or equal to those exhibited by dexamethasone"}, {"measurement": "GI50", "setting": "M14; Homo sapiens", "result": 1550, "unit": "nM"}, {"measurement": "pIC50", "setting": "M14; Homo sapiens", "result": 5.48}, {"measurement": "CC50", "setting": "M14; [5]", "result": 32.4, "unit": "µM"}, {"measurement": "TGI", "setting": "M14", "result": 8.32, "unit": "µM"}, {"measurement": "TGI", "setting": "EKVX", "result": 12, "unit": "µM"}, {"measurement": "GI50", "setting": "EKVX; Homo sapiens", "result": 2880, "unit": "nM"}, {"measurement": "pIC50", "setting": "EKVX; Homo sapiens", "result": 5.12}, {"measurement": "CC50", "setting": "EKVX; [5]", "result": 100, "unit": "µM"}, {"measurement": "GI50", "setting": "U251; Homo sapiens, U-251", "result": 6.17, "unit": "µM"}, {"measurement": "pIC50", "setting": "U251; Homo sapiens, U-251", "result": 4.93}, {"measurement": "CC50", "setting": "U251; Homo sapiens, U-251, read-out: LC50 (the source's name)", "result": 100, "unit": "µM"}, {"measurement": "TGI", "setting": "U251", "result": 100, "unit": "µM"}, {"measurement": "GI50", "setting": "MALME-3M; Homo sapiens", "result": 2630, "unit": "nM"}, {"measurement": "pIC50", "setting": "MALME-3M; Homo sapiens", "result": 5.01}, {"measurement": "CC50", "setting": "MALME-3M; [5]", "result": 32.4, "unit": "µM"}, {"measurement": "TGI", "setting": "MALME-3M", "result": 7.94, "unit": "µM"}, {"measurement": "GI50", "setting": "MDA-MB-231/ATCC; Homo sapiens", "result": 12.3, "unit": "µM"}, {"measurement": "pIC50", "setting": "MDA-MB-231/ATCC; Homo sapiens", "result": "≤ 4.00"}, {"measurement": "CC50", "setting": "MDA-MB-231/ATCC; [5]", "result": 100, "unit": "µM"}, {"measurement": "TGI", "setting": "MDA-MB-231/ATCC", "result": 100, "unit": "µM"}, {"measurement": "GI50", "setting": "MOLT-4; Homo sapiens", "result": 2240, "unit": "nM"}, {"measurement": "pIC50", "setting": "MOLT-4; Homo sapiens", "result": 5.44}, {"measurement": "LC50", "setting": "MOLT-4; Homo sapiens", "result": 100, "unit": "µM"}, {"measurement": "TGI", "setting": "MOLT-4", "result": 7.76, "unit": "µM"}, {"measurement": "Percent Cell Death", "setting": "[2]; 0.05 uM", "result": 62.2, "unit": "%"}, {"measurement": "Percent Cell Death", "setting": "[2]; 0.5 uM", "result": 62.2, "unit": "%"}, {"measurement": "Percent Cell Death", "setting": "[2]; 5 uM", "result": 49.7, "unit": "%"}, {"measurement": "protective effects against LRRK2-associated cell death", "setting": "[2]; LRRK2 wild-type, at 0.05 uM and higher, vs vector, DMSO or H2O2 controls", "result": "increased protective effects"}, {"measurement": "Percent Cell Death", "setting": "[3]; 0.05 uM", "result": 53.5, "unit": "%"}, {"measurement": "Percent Cell Death", "setting": "[3]; 0.5 uM", "result": 56.9, "unit": "%"}, {"measurement": "Percent Cell Death", "setting": "[3]; 5 uM", "result": 45.8, "unit": "%"}, {"measurement": "protective effects against LRRK2-associated cell death", "setting": "[3]; at 0.05 uM and higher, vs vector, DMSO or H2O2 controls", "result": "increased protective effects"}, {"measurement": "Percent Cell Death", "setting": "[4]; 0.05 uM", "result": 54.2, "unit": "%"}, {"measurement": "Percent Cell Death", "setting": "[4]; 0.5 uM", "result": 57.5, "unit": "%"}, {"measurement": "Percent Cell Death", "setting": "[4]; 5 uM", "result": 42.5, "unit": "%"}, {"measurement": "GI50", "setting": "NCI-H23; Homo sapiens", "result": 3.24, "unit": "µM"}, {"measurement": "pIC50", "setting": "NCI-H23; Homo sapiens", "result": 5.16}, {"measurement": "CC50", "setting": "NCI-H23; [5]", "result": 50.1, "unit": "µM"}, {"measurement": "TGI", "setting": "NCI-H23", "result": 13.8, "unit": "µM"}, {"measurement": "GI50", "setting": "NCI-H226; Homo sapiens", "result": 3.24, "unit": "µM"}, {"measurement": "pIC50", "setting": "NCI-H226; Homo sapiens", "result": 5.08}, {"measurement": "CC50", "setting": "NCI-H226; [5]", "result": 100, "unit": "µM"}, {"measurement": "TGI", "setting": "NCI-H226", "result": 17.8, "unit": "µM"}]}
